Data taken from patent US20230228744A1, “DRY EYE DISEASE BIOMARKERS AND THEIR USE FOR TREATMENT” (Aldeyra Therapeutics, Inc., priority 2020, published 2023).

Test: Exploratory aldehyde trapping studies in PBS and ACN/H2O (MS)
Type: biochemical
Details: 10 μM aldehyde, 1 mM trapping reagent, PBS or 50/50 ACN/H2O
Procedure: Semicarbazide (SCZ), glutathione (GSH), cysteine, and N-acetyl cysteine were used as trapping agents with the aldehydes 4-hydroxynonenal (4-HNE), malondialdehyde, acetaldehyde, hexanal, pentanal, and decanal. 10 μM of aldehyde was mixed with 1 mM of trapping reagent in either PBS or 50/50 ACN/H2O.

| Compound | trapping of aldehydes as judged by MS | trapping effectiveness, comparison of trapping agents |
| --- | --- | --- |
| N[C@@H](CCC(=O)N[C@@H](CS)C(=O)NCC(=O)O)C(=O)O [glutathione] | appeared to trap aldehydes | – |
| NNC(N)=O [semicarbazide, Semicarbazide] | appeared to trap aldehydes | more effective than GSH |
